The target of one assay is c-Met (Homo sapiens, UniProt P08581). The assay can be described thus: Ki determination for the inhibition of c-Met, coupled enzyme system. In kind it is biochemical. The conditions noted are these: 200 μM ATP, 10 μM polyGluTyr, 80 nM c-Met, 30° C. The procedure, abridged:
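Coupled pyruvate kinase/lactate dehydrogenase NADH assay with 80 nM c-Met, 200 μM ATP, 10 μM polyGluTyr in pH 7.5 HEPES, 1.5% DMSO at 30° C. Compound (0.006–12.5 μM final, 12-point) preincubated 10 min; ATP started reaction, rates read over 10 min; Ki derived from rate versus inhibitor concentration.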

In another assay the target is T1, FLT-3 (Homo sapiens, UniProt P36888).
T1 construct: 0.02% BSA and 3 nM FLT-3
T1 sequence (P36888 27-993): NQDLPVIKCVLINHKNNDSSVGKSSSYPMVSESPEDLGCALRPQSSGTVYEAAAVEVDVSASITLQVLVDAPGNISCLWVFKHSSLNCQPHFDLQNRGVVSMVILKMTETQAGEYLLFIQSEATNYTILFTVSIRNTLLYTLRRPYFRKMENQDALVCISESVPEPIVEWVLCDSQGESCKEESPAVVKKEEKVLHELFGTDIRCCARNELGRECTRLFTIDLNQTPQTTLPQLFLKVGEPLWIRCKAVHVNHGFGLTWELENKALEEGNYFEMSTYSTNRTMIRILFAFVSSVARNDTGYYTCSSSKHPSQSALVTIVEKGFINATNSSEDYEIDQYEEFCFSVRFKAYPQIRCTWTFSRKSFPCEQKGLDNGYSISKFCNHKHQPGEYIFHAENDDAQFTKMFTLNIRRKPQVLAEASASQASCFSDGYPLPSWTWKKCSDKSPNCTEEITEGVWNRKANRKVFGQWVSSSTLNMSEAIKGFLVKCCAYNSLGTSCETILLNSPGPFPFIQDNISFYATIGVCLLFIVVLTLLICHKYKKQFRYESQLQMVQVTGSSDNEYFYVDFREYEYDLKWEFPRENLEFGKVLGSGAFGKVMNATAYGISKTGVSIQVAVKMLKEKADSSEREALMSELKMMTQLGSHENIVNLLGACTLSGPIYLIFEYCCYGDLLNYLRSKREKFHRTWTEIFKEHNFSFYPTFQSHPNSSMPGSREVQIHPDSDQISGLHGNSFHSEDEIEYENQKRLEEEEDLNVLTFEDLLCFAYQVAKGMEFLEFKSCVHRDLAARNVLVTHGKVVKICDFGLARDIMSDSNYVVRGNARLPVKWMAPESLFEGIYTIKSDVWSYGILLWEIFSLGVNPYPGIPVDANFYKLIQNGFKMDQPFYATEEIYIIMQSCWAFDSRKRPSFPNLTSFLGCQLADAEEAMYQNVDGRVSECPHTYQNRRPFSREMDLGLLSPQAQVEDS
Description: Inhibition of FLT-3, radiometric filter-binding assay. In kind it is biochemical. The conditions noted are these: 90 μM ATP, 0.5 mg/mL pE4Y, room temperature. The protocol:
Compounds were screened for their ability to inhibit FLT-3 activity using a radiometric filter-binding assay. This assay monitors the ^33P incorporation into a substrate poly(Glu, Tyr) 4:1 (pE4Y). Reactions were carried out in a solution containing 100 mM HEPES (pH 7.5), 10 mM MgCl2, 25 mM NaCl, 1 mM DTT, 0.01% BSA and 2.5% DMSO. Final substrate concentrations in the assay were 90 μM ATP and 0.5 mg/mL pE4Y (both from Sigma Chemicals, St Louis, Mo.). The final concentration of compounds is generally between 0.01 and 5 μM. Typically, a 12-point titration was conducted by preparing serial dilutions from 10 mM DMSO stock of test compound. Reactions were carried out at room temperature.
Two assay solutions were prepared. Solution 1 contains 100 mM HEPES (pH 7.5), 10 mM MgCl2, 25 mM NaCl, 1 mg/ml pE4Y and 180 μM ATP(containing 0.3 μCi of [γ-^33P]ATP for each reaction). Solution 2 contains 100 mM HEPES (pH 7.5), 10 mM MgCl2, 25 mM NaCl, 2 mM DTT, 0.02% BSA and 3 nM FLT-3. The assay was run on a 96 well plate by mixing 50 μL each of Solution 1 and […] of the test compounds. The reaction was initiated with Solution2. After incubation for 20 minutes at room temperature, the reaction was stopped with 50 μL of 20% TCA containing 0.4 mM of ATP. All of the reaction volume was then transferred to a filter plate and washed with 5% TCA by a Harvester9600 from TOMTEC (Hamden, Conn.). The amount of ^33P incorporation into pE4y was analyzed by a Packard TopCount Microplate Scintillation Counter (Meriden, Conn.). The data was fitted using Prism software to get an IC50 or Ki.

c-Met, sequence (P08581 25-1390): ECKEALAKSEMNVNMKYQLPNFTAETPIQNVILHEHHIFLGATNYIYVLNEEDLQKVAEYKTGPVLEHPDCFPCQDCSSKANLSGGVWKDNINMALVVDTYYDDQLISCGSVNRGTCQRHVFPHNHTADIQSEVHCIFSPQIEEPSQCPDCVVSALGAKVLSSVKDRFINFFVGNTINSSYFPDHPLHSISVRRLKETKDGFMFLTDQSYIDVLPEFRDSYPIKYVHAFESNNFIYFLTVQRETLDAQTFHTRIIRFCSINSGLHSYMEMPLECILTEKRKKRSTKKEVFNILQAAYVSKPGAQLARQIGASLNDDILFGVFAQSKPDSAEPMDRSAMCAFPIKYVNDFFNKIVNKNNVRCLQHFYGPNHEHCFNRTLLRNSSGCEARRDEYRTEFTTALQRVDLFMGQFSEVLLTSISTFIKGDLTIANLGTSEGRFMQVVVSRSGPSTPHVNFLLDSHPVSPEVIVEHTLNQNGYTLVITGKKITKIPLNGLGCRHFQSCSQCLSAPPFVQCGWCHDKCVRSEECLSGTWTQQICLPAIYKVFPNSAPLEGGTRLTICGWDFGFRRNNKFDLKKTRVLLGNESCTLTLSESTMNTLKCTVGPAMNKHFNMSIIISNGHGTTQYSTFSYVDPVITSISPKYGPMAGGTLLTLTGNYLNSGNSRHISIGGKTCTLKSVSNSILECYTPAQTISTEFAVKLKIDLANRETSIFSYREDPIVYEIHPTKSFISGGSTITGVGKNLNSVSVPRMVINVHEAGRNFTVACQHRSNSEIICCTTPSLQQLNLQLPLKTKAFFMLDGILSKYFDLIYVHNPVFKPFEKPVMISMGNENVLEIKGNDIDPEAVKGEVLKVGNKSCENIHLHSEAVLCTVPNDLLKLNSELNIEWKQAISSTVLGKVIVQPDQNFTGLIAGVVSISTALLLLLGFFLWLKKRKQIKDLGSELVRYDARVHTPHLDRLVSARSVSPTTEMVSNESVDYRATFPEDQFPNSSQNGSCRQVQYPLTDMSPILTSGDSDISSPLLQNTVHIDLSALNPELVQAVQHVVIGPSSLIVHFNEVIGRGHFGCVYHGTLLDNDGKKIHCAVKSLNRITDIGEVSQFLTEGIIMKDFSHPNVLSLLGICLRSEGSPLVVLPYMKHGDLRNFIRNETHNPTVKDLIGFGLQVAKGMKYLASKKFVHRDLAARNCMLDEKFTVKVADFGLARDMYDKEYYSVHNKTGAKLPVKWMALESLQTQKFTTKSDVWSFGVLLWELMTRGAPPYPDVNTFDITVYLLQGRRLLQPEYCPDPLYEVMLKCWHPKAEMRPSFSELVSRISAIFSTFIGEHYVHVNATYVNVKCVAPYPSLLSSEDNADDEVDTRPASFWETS

Compound `Fc1ccc(-c2cnoc2-c2c[nH]c3ncccc23)c(F)c1F` [Compound 40, 3-[4-(2,3,4-Trifluoro-phenyl)-isoxazol-5-yl]-1H-pyrrolo [2,3-b]pyridine] registered a Ki at c-Met of under 200 nM.

As for `CN(C)Cc1ccc(-c2cnc3[nH]cc(-c4oncc4-c4cccc(F)c4F)c3c2)cc1` [Compound 91, (4-{3-[4-(2,3-Difluoro-phenyl)-isoxazol-5-yl]-1H-pyrrolo[2,3-b]pyridin-5-yl}-benzyl)-dimethyl-amine], the Ki on FLT-3 and at c-Met was under 200 nM each time. Regarding `c1cnc2[nH]cc(-c3oncc3C3CCCCC3)c2c1` [Compound 47, 3-(4-Cyclohexyl-isoxazol-5-yl)-1H-pyrrolo[2,3-b]pyridine], the Ki on FLT-3 fell in the range of 200 to 1000 nM; on c-Met it was 1000 to 12500 nM. For `Fc1cccc(-n2cnnc2-c2c[nH]c3ncc(-c4ccc(N5CCC[C@H]5CN5CCCC5)nc4)cc23)c1F` [Compound 115, 3-[4-(2,3-Difluoro-phenyl)-4H-[1,2,4]triazol-3-yl]-5-[6-(2-pyrrolidin-1-ylmethyl-pyrrolidin-1-yl)-pyridin-3-yl]-1H-pyrrolo[2,3-b]pyridine], in that order: 200 to 1000 nM and under 200 nM. For `Clc1cccc(-c2cnoc2-c2c[nH]c3ncccc23)c1Cl` [Compound 2, 3-[4-(2,3-Dichloro-phenyl)-isoxazol-5-yl]-1H-pyrrolo[2,3-b]pyridine], in that order: 1000 to 12500 nM and under 200 nM.

As to `Fc1cccc(-c2cnoc2-c2c[nH]c3ncc(C4CCNCC4)cc23)c1F` [Compound 62, 3-[4-(2,3-Difluoro-phenyl)-isoxazol-5-yl]-5-piperidin-4-yl-1H-pyrrolo[2,3-b]pyridine], the figures for the Ki at FLT-3 and on c-Met were 200 to 1000 nM and under 200 nM, respectively. As for `COc1cnc2[nH]cc(-c3oncc3-c3cccc(F)c3F)c2c1` [Compound 38, 3-[4-(2,3-Difluoro-phenyl)-isoxazol-5-yl]-5-methoxy-1H-pyrrolo[2,3-b]pyridine], the Ki at FLT-3 and on c-Met was under 200 nM each time.

`Fc1cccc(-c2cnoc2-c2c[nH]c3ncc(-c4ccncc4)cc23)c1F` [Compound 57, 3-[4-(2,3-Difluoro-phenyl)-isoxazol-5-yl]-5-pyridin-4-yl-1H-pyrrolo[2,3-b]pyridine]: the Ki at FLT-3 and at c-Met was under 200 nM in each case. For `Fc1cccc(-n2cnnc2-c2c[nH]c3ncc(-c4ccncc4)cc23)c1F` [Compound 114, 3-[4-(2,3-Difluoro-phenyl)-4H-[1,2,4]triazol-3-yl]-5-pyridin-4-yl-1H-pyrrolo[2,3-b]pyridine], the Ki at c-Met is under 200 nM. Take `CN(C)Cc1ccc(-c2cnc3[nH]cc(-c4oncc4-c4cccc(F)c4F)c3c2)nc1` [Compound 84, (6-{3-[4-(2,3-Difluoro-phenyl)-isoxazol-5-yl]-1H-pyrrolo[2,3-b]pyridin-5-yl}-pyridin-3-ylmethyl)-dimethyl-amine]: the Ki at FLT-3 and at c-Met was under 200 nM in each case. With `CCN1CCC(c2cnc3[nH]cc(-c4oncc4-c4cccc(F)c4F)c3c2)CC1` [Compound 72, 3-[4-(2,3-Difluoro-phenyl)-isoxazol-5-yl]-5-(1-ethyl-piperidin-4-yl)-1H-pyrrolo[2,3-b]pyridine], the Ki on FLT-3 is 1000 to 12500 nM; on c-Met it was under 200 nM.

On to `Oc1cnc2[nH]cc(-c3oncc3-c3cccc(F)c3F)c2c1` [Compound 43, 3-[4-(2,3-Difluoro-phenyl)-isoxazol-5-yl]-1H-pyrrolo[2,3-b]pyridin-5-ol], for which the Ki on FLT-3 was 200 to 1000 nM; at c-Met, under 200 nM. For `Fc1cccc(-c2cnoc2-c2c[nH]c3ncc(-c4c[nH]cn4)cc23)c1F` [Compound 76, 3-[4-(2,3-Difluoro-phenyl)-isoxazol-5-yl]-5-(3H-imidazol-4-yl)-1H-pyrrolo[2,3-b]pyridine], in that order: under 200 nM and under 200 nM. For `Fc1cccc(-c2cnoc2-c2c[nH]c3ncc(-c4ncccn4)cc23)c1F` [Compound 75, 3-[4-(2,3-Difluoro-phenyl)-isoxazol-5-yl]-5-pyrimidin-2-yl-1H-pyrrolo[2,3-b]pyridine], in that order: 200 to 1000 nM and under 200 nM.

As for `COc1ccnc(-c2cnc3[nH]cc(-c4oncc4-c4cccc(F)c4F)c3c2)c1` [Compound 78, 3-[4-(2,3-Difluoro-phenyl)-isoxazol-5-yl]-5-(4-methoxy-pyridin-2-yl)-1H-pyrrolo[2,3-b]pyridine], the figures for the Ki at FLT-3 and on c-Met were 200 to 1000 nM and under 200 nM, respectively. For `Fc1cccc(-c2cnoc2-c2c[nH]c3ncc(-c4ccc(CN5CCCC5)cc4)cc23)c1F` [Compound 93, 3-[4-(2,3-Difluoro-phenyl)-isoxazol-5-yl]-5-(4-pyrrolidin-1-ylmethyl-phenyl)-1H-pyrrolo[2,3-b]pyridine], in that order: under 200 nM and under 200 nM. With `Fc1cccnc1-c1cnc2[nH]cc(-c3oncc3-c3cccc(F)c3F)c2c1` [Compound 74, 3-[4-(2,3-Difluoro-phenyl)-isoxazol-5-yl]-5-(3-fluoro-pyridin-2-yl)-1H-pyrrolo[2,3-b]pyridine], the Ki on FLT-3 was 1000 to 12500 nM; on c-Met, under 200 nM. In the case of `O=c1ccc(-c2cnc3[nH]cc(-c4oncc4-c4cccc(F)c4F)c3c2)c[nH]1` [Compound 67, 5-{3-[4-(2,3-Difluoro-phenyl)-isoxazol-5-yl]-1H-pyrrolo [2,3-b]pyridin-5-yl}-1H-pyridin-2-one], the Ki at c-Met is under 200 nM.

In turn, `CS(=O)(=O)n1ccc2cc(-c3cnc4[nH]cc(-c5oncc5-c5cccc(F)c5F)c4c3)cnc21` [Compound 97, 3′-[4-(2,3-Difluoro-phenyl)-isoxazol-5-yl]-1-methanesulfonyl-1H, 1′H-[5,5′]bi[pyrrolo[2,3-b]pyridinyl]] gave a Ki on c-Met of under 200 nM.

For `O=c1[nH]ccc2c(-c3oncc3-c3cccc(F)c3F)c[nH]c12` [Compound 145, 3-[4-(2,3-Difluoro-phenyl)-isoxazol-5-yl]-1,6-dihydro-pyrrolo[2,3-c]pyridin-7-one], the Ki on c-Met was in the range of 1000 to 12500 nM.

The compound `Fc1cccc(-c2cnoc2-c2c[nH]c3ncc(Br)cc23)c1F` [Compound 37, 5-Bromo-3-[4-(2,3-difluoro-phenyl)-isoxazol-5-yl]-1H-pyrrolo[2,3-b]pyridine] gave a Ki on c-Met of under 200 nM. Same read-out and setting: the value for `Cc1noc(-c2c[nH]c3ncc(-c4ccc(N5CCN(C)CC5)cc4)cc23)c1-c1cccc(F)c1F` [Compound 135, 3-[4-(2,3-Difluoro-phenyl)-3-methyl-isoxazol-5-yl]-5-[4-(4-methyl-piperazin-1-yl)-phenyl]-1H-pyrrolo[2,3-b]pyridine] was under 200 nM; that for `Fc1cccc(-n2cnnc2-c2c[nH]c3ncc(-c4cccnc4)cc23)c1F` [Compound 113, 3-[4-(2,3-Difluoro-phenyl)-4H-[1,2,4]triazol-3-yl]-5-pyridin-3-yl-1H-pyrrolo[2,3-b]pyridine] was under 200 nM.

On c-Met, `CN(C)c1ccc(-c2cnc3[nH]cc(-c4oncc4-c4cccc(F)c4F)c3c2)cc1` [Compound 88, (4-{3-[4-(2,3-Difluoro-phenyl)-isoxazol-5-yl]-1H-pyrrolo[2,3-b]pyridin-5-yl}-phenyl)-dimethyl-amine] displayed a Ki of under 200 nM.

Values taken from patent publication US7446199B2, “Compositions useful as inhibitors of protein kinases” (Vertex Pharmaceuticals Incorporated, priority 2003, dated 2008).
